The test system of one assay is Klebsiella aerogenes. Kind of assay: In vitro antimicrobial activity against Klebsiella aerogenes 1522 E. The format is functional.
In assay [1] the test system is Pseudomonas aeruginosa. Put plainly: In vitro antimicrobial activity against Pseudomonas aeruginosa 9027. The class given is functional.
Assay [2] has as its system Escherichia coli. Put plainly: In vitro antimicrobial activity against Escherichia coli DC 0. The format is functional.
The test system of assay [3] is Escherichia coli. Kind of assay: In vitro antimicrobial activity against Escherichia coli 055. The format is functional.
In the next assay the test system is Enterococcus faecium. Kind of assay: In vitro antimicrobial activity against Streptococcus faecium MD 8b. The format is functional.
Assay [4] relates to Escherichia coli. Put plainly: In vitro antimicrobial activity against Escherichia coli TEM. The class given is functional.
The test system of assay [5] is Staphylococcus aureus. Kind of assay: In vitro antimicrobial activity against Methicillin resistant Staphylococcus aureus (MRSA). The class given is functional.
Assay [6] deals with Escherichia coli. Put plainly: In vitro antimicrobial activity against Escherichia coli DC 2. The class given is functional.
The subject of assay [7] is Streptococcus pyogenes. Put plainly: In vitro antimicrobial activity against Streptococcus pyogenes 77A. The format is functional.
Another assay concerns Klebsiella oxytoca. Put plainly: In vitro antimicrobial activity against Klebsiella oxytoca 1082. The class given is functional.
Assay [8] concerns Enterobacter cloacae. Kind of assay: In vitro antimicrobial activity against Enterobacter 1321 E. The format is functional.
Assay [9] deals with Streptococcus pyogenes. Kind of assay: In vitro antimicrobial activity against Streptococcus pyogenes SG 511. The format is functional.
Assay [10] concerns Escherichia coli. Kind of assay: In vitro antimicrobial activity against Escherichia coli 1507E. The format is functional.
Assay [11] concerns Streptococcus pyogenes. Put plainly: In vitro antimicrobial activity against Streptococcus pyogenes A 308. The format is functional.
Assay [12] concerns Pseudomonas aeruginosa. Put plainly: In vitro antimicrobial activity against Pseudomonas aeruginosa 1771 M. The format is functional.
Assay [13] deals with Staphylococcus aureus. Kind of assay: In vitro antimicrobial activity against Staphylococcus aureus 285. The class given is functional.
Another assay concerns Salmonella typhimurium. Kind of assay: In vitro antimicrobial activity against Salmonella Typhimurium. The class given is functional, Salmonella enterica subsp. enterica serovar Typhimurium. As to conditions: Salmonella enterica.
For assay [14], the system named is Pseudomonas aeruginosa. Put plainly: In vitro antimicrobial activity against Pseudomonas aeruginosa 1592 E. The format is functional.
For assay [15], the system named is Enterobacter cloacae. Kind of assay: In vitro antimicrobial activity against Enterobacter cloacae P99. The format is functional.
For assay [16], the system named is Pseudomonas aeruginosa. Put plainly: In vitro antimicrobial activity against Pseudomonas aeruginosa 1771. The format is functional.
Assay [17] concerns Staphylococcus aureus. Put plainly: In vitro antimicrobial activity against Staphylococcus aureus 503. The class given is functional.

We go through 5 compounds from ChEMBL document CHEMBL1132901, “Synthesis and structure-activity relationships of quaternary ammonium cephalosporins with 3-pyrazolylpyridinium derivatives” (2000).

For orientation: MIC means the least concentration at which growth counts as inhibited. Low values mean inhibition by little substance, high ones a need for much substance.

≈ marks a conversion by molar mass, not a printed value.

For the compound `CO/N=C(/C(=O)N[C@@H]1C(=O)N2C(C(=O)[O-])=C(C[n+]3cccc(-c4cc(N)n(CCO)n4)c3)CS[C@H]12)c1csc(N)n1`, the MIC against Klebsiella aerogenes turned out to be 0.049 µg/mL (≈ 0.0817 µM); with Pseudomonas aeruginosa [1] it was 12.5 µg/mL (≈ 20.8 µM); in the assay with Escherichia coli [2], 0.025 µg/mL (≈ 0.0417 µM); against Escherichia coli [3], 0.025 µg/mL (≈ 0.0417 µM); in the assay on Enterococcus faecium, 1.56 µg/mL (≈ 2.61 µM); against Escherichia coli [4] it was 0.098 µg/mL (≈ 0.163 µM). Also, the MIC with Staphylococcus aureus [5] was 12.5 µg/mL (≈ 20.8 µM); in the assay with Escherichia coli [6], 0.013 µg/mL (≈ 0.0217 µM); in the assay on Streptococcus pyogenes [7], 0.013 µg/mL (≈ 0.0217 µM); in the assay on Klebsiella oxytoca it was 3.12 µg/mL (≈ 5.21 µM); in the assay with Enterobacter cloacae [8] it was 0.025 µg/mL (≈ 0.0417 µM); against Streptococcus pyogenes [9], 0.781 µg/mL (≈ 1.3 µM). Besides, the MIC with Escherichia coli [10] is 0.098 µg/mL (≈ 0.163 µM); against Streptococcus pyogenes [11], 0.025 µg/mL (≈ 0.0417 µM); in the assay on Pseudomonas aeruginosa [12], 0.391 µg/mL (≈ 0.652 µM); with Staphylococcus aureus [13] it was 1.56 µg/mL (≈ 2.61 µM); against Salmonella typhimurium it was 0.098 µg/mL (≈ 0.163 µM); with Pseudomonas aeruginosa [14], 6.25 µg/mL (≈ 10.4 µM). For the same compound, the figures for the MIC in the assay with Enterobacter cloacae [15], in the assay with Pseudomonas aeruginosa [16] and in the assay on Staphylococcus aureus [17] were 50 µg/mL (≈ 83.4 µM), 3.12 µg/mL (≈ 5.21 µM) and 0.391 µg/mL (≈ 0.652 µM), respectively.

Turning to `CO/N=C(/C(=O)N[C@@H]1C(=O)N2C(C(=O)[O-])=C(C[n+]3cccc(-c4cc(C(N)=O)[nH]n4)c3)CS[C@H]12)c1csc(N)n1`, the minimal inhibitory concentration (MIC) with Klebsiella aerogenes turned out to be 0.049 µg/mL (≈ 0.084 µM); in the assay on Pseudomonas aeruginosa [1] it was 6.25 µg/mL (≈ 10.7 µM); against Escherichia coli [2] it was 0.025 µg/mL (≈ 0.0428 µM); in the assay on Escherichia coli [3] it was 0.025 µg/mL (≈ 0.0428 µM); with Enterococcus faecium it was 3.12 µg/mL (≈ 5.35 µM); with Escherichia coli [4], 0.195 µg/mL (≈ 0.334 µM). In addition, the MIC came to 50 µg/mL (≈ 85.7 µM) with Staphylococcus aureus [5]; 0.025 µg/mL (≈ 0.0428 µM) against Escherichia coli [6]; 0.013 µg/mL (≈ 0.0223 µM) against Streptococcus pyogenes [7]; 1.56 µg/mL (≈ 2.68 µM) against Klebsiella oxytoca; 0.025 µg/mL (≈ 0.0428 µM) in the assay on Enterobacter cloacae [8]; 0.781 µg/mL (≈ 1.34 µM) in the assay on Streptococcus pyogenes [9]. The MIC in the assay with Escherichia coli [10] came to 0.098 µg/mL (≈ 0.168 µM); with Streptococcus pyogenes [11], 0.013 µg/mL (≈ 0.0223 µM); with Pseudomonas aeruginosa [12], 0.781 µg/mL (≈ 1.34 µM); with Staphylococcus aureus [13], 1.56 µg/mL (≈ 2.68 µM); in the assay on Salmonella typhimurium it was 0.049 µg/mL (≈ 0.084 µM); against Pseudomonas aeruginosa [14], 3.12 µg/mL (≈ 5.35 µM). Moreover, the results for the MIC in the assay with Enterobacter cloacae [15], against Pseudomonas aeruginosa [16] and against Staphylococcus aureus [17] were 50 µg/mL (≈ 85.7 µM), 1.56 µg/mL (≈ 2.68 µM) and 0.391 µg/mL (≈ 0.67 µM), respectively.

On to `CO/N=C(/C(=O)N[C@@H]1C(=O)N2C(C(=O)[O-])=C(C[n+]3cccc(-c4cc(CO)[nH]n4)c3)CS[C@H]12)c1csc(N)n1`, for which the MIC in the assay on Klebsiella aerogenes is 0.049 µg/mL (≈ 0.0859 µM); in the assay with Pseudomonas aeruginosa [1] it was 6.25 µg/mL (≈ 11 µM); with Escherichia coli [2], 0.049 µg/mL (≈ 0.0859 µM); in the assay on Escherichia coli [3], 0.049 µg/mL (≈ 0.0859 µM); in the assay with Enterococcus faecium, 3.12 µg/mL (≈ 5.48 µM); with Escherichia coli [4], 0.195 µg/mL (≈ 0.342 µM). Moreover, the MIC in the assay on Escherichia coli [6] was found to be 0.025 µg/mL (≈ 0.0438 µM); against Streptococcus pyogenes [7], 0.013 µg/mL (≈ 0.0228 µM); in the assay with Klebsiella oxytoca, 3.12 µg/mL (≈ 5.48 µM); in the assay with Enterobacter cloacae [8], 0.049 µg/mL (≈ 0.0859 µM); with Streptococcus pyogenes [9] it was 1.56 µg/mL (≈ 2.74 µM); against Escherichia coli [10], 0.098 µg/mL (≈ 0.172 µM). Also, the MIC is 0.025 µg/mL (≈ 0.0438 µM) in the assay with Streptococcus pyogenes [11]; 0.391 µg/mL (≈ 0.685 µM) against Pseudomonas aeruginosa [12]; 1.56 µg/mL (≈ 2.74 µM) with Staphylococcus aureus [13]; 0.098 µg/mL (≈ 0.172 µM) against Salmonella typhimurium; 3.12 µg/mL (≈ 5.48 µM) against Pseudomonas aeruginosa [14]; more than 12.5 µg/mL against Enterobacter cloacae [15]. The MIC came out at 1.56 µg/mL (≈ 2.74 µM) in the assay with Pseudomonas aeruginosa [16] and 0.391 µg/mL (≈ 0.685 µM) with Staphylococcus aureus [17].

Turning to `CO/N=C(/C(=O)N[C@@H]1C(=O)N2C(C(=O)[O-])=C(C[n+]3cccc(-c4cc(CO)nn4CCO)c3)CS[C@H]12)c1csc(N)n1`, the MIC with Klebsiella aerogenes worked out at 0.195 µg/mL (≈ 0.317 µM); against Pseudomonas aeruginosa [1], 25 µg/mL (≈ 40.7 µM); against Escherichia coli [2], 0.195 µg/mL (≈ 0.317 µM); against Escherichia coli [3] it was 0.098 µg/mL (≈ 0.159 µM); against Enterococcus faecium it was 12.5 µg/mL (≈ 20.3 µM); against Escherichia coli [4], 0.781 µg/mL (≈ 1.27 µM). In addition, the MIC in the assay with Staphylococcus aureus [5] came to 25 µg/mL (≈ 40.7 µM); against Escherichia coli [6], 0.098 µg/mL (≈ 0.159 µM); in the assay on Streptococcus pyogenes [7], 0.049 µg/mL (≈ 0.0797 µM); with Klebsiella oxytoca, 12.5 µg/mL (≈ 20.3 µM); against Enterobacter cloacae [8] it was 0.098 µg/mL (≈ 0.159 µM); against Streptococcus pyogenes [9], 6.25 µg/mL (≈ 10.2 µM). The MIC against Escherichia coli [10] was 0.391 µg/mL (≈ 0.636 µM); with Streptococcus pyogenes [11] it was 0.049 µg/mL (≈ 0.0797 µM); against Pseudomonas aeruginosa [12], 0.781 µg/mL (≈ 1.27 µM); with Staphylococcus aureus [13], 6.25 µg/mL (≈ 10.2 µM); in the assay with Salmonella typhimurium, 0.391 µg/mL (≈ 0.636 µM); with Pseudomonas aeruginosa [14], 12.5 µg/mL (≈ 20.3 µM). Moreover, the MIC with Enterobacter cloacae [15] is more than 50 µg/mL; in the assay on Pseudomonas aeruginosa [16], 6.25 µg/mL (≈ 10.2 µM); against Staphylococcus aureus [17], 1.56 µg/mL (≈ 2.54 µM).

On to `CO/N=C(/C(=O)N[C@@H]1C(=O)N2C(C(=O)[O-])=C(C[n+]3cccc(-c4cc(C(N)=O)nn4C)c3)CS[C@H]12)c1csc(N)n1`, for which the MIC is 0.049 µg/mL (≈ 0.082 µM) in the assay on Klebsiella aerogenes; 25 µg/mL (≈ 41.8 µM) with Pseudomonas aeruginosa [1]; 0.049 µg/mL (≈ 0.082 µM) in the assay with Escherichia coli [2]; 0.049 µg/mL (≈ 0.082 µM) in the assay on Escherichia coli [3]; 3.12 µg/mL (≈ 5.23 µM) in the assay with Enterococcus faecium; 0.195 µg/mL (≈ 0.326 µM) against Escherichia coli [4]. Further, the MIC with Staphylococcus aureus [5] was 100 µg/mL (≈ 167 µM); in the assay on Escherichia coli [6], 0.025 µg/mL (≈ 0.0418 µM); in the assay with Streptococcus pyogenes [7], 0.013 µg/mL (≈ 0.0218 µM); in the assay on Klebsiella oxytoca, 3.12 µg/mL (≈ 5.23 µM); against Enterobacter cloacae [8] it was 0.025 µg/mL (≈ 0.0418 µM); in the assay on Streptococcus pyogenes [9], 1.56 µg/mL (≈ 2.62 µM). The minimum inhibitory concentration (MIC) against Escherichia coli [10] stood at 0.098 µg/mL (≈ 0.164 µM); against Streptococcus pyogenes [11], 0.025 µg/mL (≈ 0.0418 µM); in the assay on Pseudomonas aeruginosa [12] it was 0.391 µg/mL (≈ 0.654 µM); with Staphylococcus aureus [13], 3.12 µg/mL (≈ 5.23 µM); against Salmonella typhimurium, 0.098 µg/mL (≈ 0.164 µM); against Pseudomonas aeruginosa [14], 12.5 µg/mL (≈ 20.9 µM). Besides, the MIC is 25 µg/mL (≈ 41.8 µM) against Enterobacter cloacae [15], 3.12 µg/mL (≈ 5.23 µM) with Pseudomonas aeruginosa [16] and 0.391 µg/mL (≈ 0.654 µM) in the assay with Staphylococcus aureus [17].
